Read-outs that look alike come from different tables or passages of the source.
Key:
PK in rats = type: in vivo; conditions: male, Wistar Hannover, plasma, rat
Method: All animal procedures were conducted according to the highest ethical standards using procedures approved by the Institutional Animal Care and Use Committee of Merck & Co., Rahway, NJ, USA (APS 2016-600774-FEB). Fasted male Wistar Hannover rats (n = 3 in each arm) weighing approximately 325 g were used for the PK studies. All blood samples were collected in EDTA-coated tubes at the time points specified below. For the IV arm of the study, a cannula was implanted in the jugular vein for dose administration and blood sampling. […] For the oral arm of the study, a solution of MK-8527 was administered by oral gavage at 2 mg/kg in 0.5% methylcellulose in water to fasted rats. […] The concentrations of MK-8527 in plasma were determined by LC–MS/MS assays following a protein precipitation step. Aliquots (50 µL) of plasma were precipitated by addition of 150 µL of acetonitrile solution-containing internal standard (IS), followed by centrifugation at 3,000 rpm for 10 min. A 75-µL aliquot of the supernatant was transferred into a 96-well plate, and 5 µL of each sample was used for analysis. LC–MS/MS analysis was performed on a Transcend LC system with HTS PAL CTC autosampler (Thermo Fisher Scientific, Waltham, MA, USA) interfaced to an API-5000 mass spectrometer using the turbo ion spray interface (Sciex, Framingham, MA, USA). Separation of MK-8527 was achieved on an Xselect HSS XP T3 column (50 × 2.1 mm, 2.5 µm; […] The chromatography for plasma samples was run using gradient elution as follows: the column was equilibrated with 100% A. […] The total run time was 4.15 min. Quantification was done by monitoring the transition of m/z 309 to m/z 169 or 133 for MK-8527. The method was linear across a concentration range of 2–10,000 ng/mL in plasma.

HIV-1 = assay: microbe, parasite or virus in culture
Method: IC50 values were determined, and a persistence ratio was calculated for each compound.
Assay media in each well were then evacuated and the cells resuspended using the gentle setting on the BlueWasher (BlueCatBio; Lebanon, NH, USA). Centrifugation and wash steps were repeated to ensure removal of extracellular compound.
MT4-GFP cells were infected with WT R8 virus, and PBMCs were infected with pNLG1-P2A-GFP. […] IC50 values were determined by nonlinear 4-parameter curve fitting of the data. A persistence ratio was calculated for each compound by dividing the IC50 from variable B (IC50B) by the IC50 from variable A (IC50A).

[1] = target: T1, human mitochondrial DNA polymerase γ (Homo sapiens, UniProt P54098); assay: Human mitochondrial DNA polymerase γ inhibition assay; type: biochemical; conditions: highest concentration tested 200 µM
T1 sequence (P54098 1-1239): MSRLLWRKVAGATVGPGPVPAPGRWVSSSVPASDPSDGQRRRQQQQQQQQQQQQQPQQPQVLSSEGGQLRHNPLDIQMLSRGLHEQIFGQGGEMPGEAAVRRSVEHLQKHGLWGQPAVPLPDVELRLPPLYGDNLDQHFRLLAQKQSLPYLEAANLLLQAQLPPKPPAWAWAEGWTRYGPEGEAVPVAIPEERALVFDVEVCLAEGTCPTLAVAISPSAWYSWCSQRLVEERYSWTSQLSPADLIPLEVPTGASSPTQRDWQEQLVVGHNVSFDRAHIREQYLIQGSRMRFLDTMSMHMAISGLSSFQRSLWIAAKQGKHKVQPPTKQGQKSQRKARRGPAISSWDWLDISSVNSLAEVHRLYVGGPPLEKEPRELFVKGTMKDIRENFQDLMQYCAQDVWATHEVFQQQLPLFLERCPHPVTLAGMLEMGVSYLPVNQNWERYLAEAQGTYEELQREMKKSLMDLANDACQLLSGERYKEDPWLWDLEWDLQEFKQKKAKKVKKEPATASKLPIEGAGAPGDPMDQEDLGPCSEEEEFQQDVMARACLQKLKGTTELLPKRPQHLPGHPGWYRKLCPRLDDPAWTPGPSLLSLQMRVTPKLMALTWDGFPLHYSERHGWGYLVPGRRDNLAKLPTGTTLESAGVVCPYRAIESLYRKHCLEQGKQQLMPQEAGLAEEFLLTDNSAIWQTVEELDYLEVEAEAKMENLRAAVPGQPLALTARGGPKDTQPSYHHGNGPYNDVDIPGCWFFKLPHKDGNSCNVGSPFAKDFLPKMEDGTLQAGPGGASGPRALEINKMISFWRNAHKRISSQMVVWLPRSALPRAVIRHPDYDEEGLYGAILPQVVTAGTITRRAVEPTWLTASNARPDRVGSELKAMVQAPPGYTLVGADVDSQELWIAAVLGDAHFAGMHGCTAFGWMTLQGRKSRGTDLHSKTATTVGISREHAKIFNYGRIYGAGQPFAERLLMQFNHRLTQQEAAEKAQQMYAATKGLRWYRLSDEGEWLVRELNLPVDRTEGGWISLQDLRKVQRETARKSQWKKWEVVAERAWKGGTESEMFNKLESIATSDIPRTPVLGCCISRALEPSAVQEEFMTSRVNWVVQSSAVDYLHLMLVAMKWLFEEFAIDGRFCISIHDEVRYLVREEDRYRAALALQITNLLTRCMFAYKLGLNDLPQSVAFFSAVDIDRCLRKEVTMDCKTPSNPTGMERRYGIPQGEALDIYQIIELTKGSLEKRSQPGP
Method: The activities of human DNA polymerases α, β, and γ were measured in radiolabeled nucleotide incorporation assays. TP was prepared as a 10-point titration with 3-fold serial dilution in water. Reaction buffers for the DNA polymerase α and β assays both contained 20 mM Tris pH 7.5, 10 mM MgCl2, 50 μM EDTA, 200 μg/mL bovine serum albumin (BSA), 2 mM dithiothreitol (DTT), 1.6 μM each of dNTP (dATP, dCTP, dGTP, and dTTP), 20 μCi/mL [α33P]dATP, 0.1 mg/mL gapped activated fish sperm DNA template, test compound, and 0.005 U/μL DNA polymerase α or 0.0025 U/μL DNA polymerase β. The reaction buffer for DNA polymerase γ contained 20 mM Tris pH 8, 10 mM MgCl2, 50 mM KCl, 100 μg/mL BSA, 2 mM β-mercaptoethanol, 10 μM of each dNTP (dATP, dCTP, dGTP, and dTTP), 20 μCi/mL [α33P]dATP, 0.04 mg/mL gapped activated fish sperm DNA template, test compound, and 0.0003 μg/μL DNA polymerase γ. The 50-μL reactions were incubated at room temperature for 30 min (for β and γ) or 90 min (for α) before terminating with the addition of 50 μL 500 mM EDTA. The reaction mixtures were transferred to a Millipore DE81 filter plate (EMD Millipore; Hayward, CA), washed with 0.5 M sodium phosphate pH 7.0, and dried. After addition of 40 μL scintillant to each well, the incorporation of labeled dATP was determined with a microplate counter (TopCount NXT HTS; PerkinElmer, Shelton, CA, USA).

C#C[C@]1(CO)O[C@@H](n2ccc3c(N)nc(Cl)nc32)C[C@@H]1O [Compound 12, (2R,3S,5R)-5-(4-amino-2-chloro-7H-pyrrolo[2,3-d]pyrimidin-7-yl)-2-ethynyl-2-(hydroxymethyl)tetrahydrofuran-3-ol]
clearance (PK in rats; IV 1.0 mg/kg, read-out: CLp): 18.1 ± 3.3 mL/min/kg
Vd (PK in rats; IV 1.0 mg/kg, read-out: Vdss): 2 ± 0.3 L/kg
bioavailability (PK in rats; oral 2 mg/kg): 57%
half-life (PK in rats; IV 1.0 mg/kg, read-out: t½ (converted)): 2.3 ± 1.3 h
IC50 (HIV-1; Human immunodeficiency virus 1, 48 h, read-out: Persistence assay IC50B, MT4-GFP cells): 223 ± 104 nM
IC50 (HIV-1; Human immunodeficiency virus 1, read-out: Persistence assay IC50A, MT4-GFP cells): 7.2 ± 2.3 nM

C#C[C@]1(COP(=O)(O)OP(=O)(O)OP(=O)(O)O)O[C@@H](n2ccc3c(N)nc(Cl)nc32)C[C@@H]1O [MK-8527-TP]
Inhibitory activity [1]: no inhibitory activity

From article PMC12380353, “MK-8527 is a novel inhibitor of HIV-1 reverse transcriptase translocation with potential for extended-duration dosing” (PLOS Biology, 2025)
